Data reported in ChEMBL document CHEMBL1137033, “Novel bisbenzamidines as potential drug candidates for the treatment of Pneumocystis carinii pneumonia” (Bioorg Med Chem Lett, 2004).

Assays:
A549 = experiment: Cytotoxicity against A549 cell line; assay type: functional, cell-based; settings: Homo sapiens
Pneumocystis carinii = experiment: inhibitory concentration against Pneumocystis carinii; assay type: functional, organism-based

IC50 (Pneumocystis carinii) [nM]	Compound	IC50 (A549) [nM]
1400	N=C(N)c1ccc(OCc2ccccc2COc2ccc(C(=N)N)cc2)cc1	33100
3	N=C(N)c1ccc(NC(=O)CCCC(=O)Nc2ccc(C(=N)N)cc2)cc1	> 300
1300	N=C(N)c1ccc(COc2ccccc2OCc2ccc(C(=N)N)cc2)cc1	44100
2	N=C(N)c1ccc(NC(=O)CCCCC(=O)Nc2ccc(C(=N)N)cc2)cc1	> 200
1300	N=C(N)c1ccc(OCc2ccc(COc3ccc(C(=N)N)cc3)cc2)cc1	30200
500	N=C(N)c1ccc(OCCCCCOc2ccc(C(=N)N)cc2)cc1 [PENTAMIDINE]	24000

Compound	IC50 (Pneumocystis carinii) [nM]	IC50 (A549) [nM]
N=C(N)c1ccc(OC(=O)c2ccc(C(=O)Oc3ccc(C(=N)N)cc3)cc2)cc1 [BIS(4-CARBAMIMIDOYLPHENYL)TEREPHTHALATE]	13400	121000
